US20060058274A1, “Use of an aldosterone receptor antagonist to improve cognitive function” (Pharmacia Corporation, priority 2000, published 2006)
Marks after values point to notes of the source that are not given here.

Columns and labels:
[1] = tested on: patients with mild-to-moderate hypertension; experiment: Phase II dose-ranging study of eplerenone in mild-to-moderate hypertension; type: in vivo, human; conditions: 50 mg BID
From the text: The adjusted mean changes (in mmHg) in diastolic blood pressure (DBP) and systolic blood pressure (SBP) from baseline to final visit are shown in Table 1A.

animal models = conditions: cited from earlier work
women with PMS = conditions: cited from earlier work
[2] = tested on: patients with severe heart failure; experiment: Clinical study in patients with severe heart failure: HRQOL by SF-36; type: in vivo, human; conditions: for Change from baseline in SF-36 Bodily Pain / Change from baseline in SF-36 General Health / Change from baseline in SF-36 Mental Composite Summary (MCS) / Change from baseline in SF-36 Mental Health / Change from baseline in SF-36 Physical Composite Summary (PCS) / Change from baseline in SF-36 Physical Functioning / Change from baseline in SF-36 Role Limitations - Emotional / Change from baseline in SF-36 Role Limitations - Physical / Change from baseline in SF-36 Social Functioning / Change from baseline in SF-36 Vitality: 25 mg daily, mean ± SD; for Effect size estimate for change in SF-36 Bodily Pain / Effect size estimate for change in SF-36 General Health / Effect size estimate for change in SF-36 Mental Composite Summary (MCS) / Effect size estimate for change in SF-36 Mental Health / Effect size estimate for change in SF-36 Physical Composite Summary (PCS) / Effect size estimate for change in SF-36 Physical Functioning / Effect size estimate for change in SF-36 Role Limitations - Emotional / Effect size estimate for change in SF-36 Role Limitations - Physical / Effect size estimate for change in SF-36 Social Functioning / Effect size estimate for change in SF-36 Vitality: [mean (spironolactone) − mean (placebo)]/(SD placebo at baseline)
From the text: Patients: One thousand six hundred and sixty-three (1,663) patients with severe heart failure were enrolled in the study. […] Treatment with digitalis and vasodilators was allowed, but potassium-sparing diuretics were not permitted. Oral potassium supplements were not recommended unless hypokalemia (serum potassium ≦3.5 mmol per liter) developed. A low salt diet (100-200 mEg/day, sodium) was recommended to all patients. Patients were excluded from the trial if they had clinically significant operable valvular disease (other than mitral or tricuspid regurgitation), congenital heart disease, unstable angina, primary hepatic failure, active malignancy, a heart transplant or were a candidate for heart transplantation, or any life threatening diseae (other than heart failure). Other criteria for exclusion were a serum creatinine concentration >2.5 mg per deciliter (>220 μmol per liter) or a serum potassium concentration >5.0 mmol per liter. The protocol was approved by the Institutional Review Boards or Ethics Committees of all participating institutions. Written informed consent was obtained from all patients.
Study Group: Subjects were randomly assigned to receive either spironolactone 25 mg daily or placebo. HRQOL was assessed in a subsample of 90 subjects in 2 participating countries using the Medical Outcomes Trust Short-Form 36-item Health Survey (SF-36). Assessments were scheduled at baseline, 1, 2, 3, and 6 months after initiation of therapy.
HRQOL Evaluation: HRQOL was assessed using the Short-Form 36-item Health Survey (SF-36). (Ware J E, Snow K K, Kosinski M, Gandek B. SF-36 Health Survey: Manual and Interpretation Guide. Boston, Mass.: The Health Institute, 1993). Assessments were scheduled at baseline, 1, 2, 3, 6 and 12 months after initiation of therapy. The analysis presented herein is limited to 6-month follow-up as less than 50% of subjects had 12-month follow-up data.
Statistical Analyses: Change from baseline was assessed for the 8 dimension scores of the SF-36, as well as the Physical (PCS) and Mental Composite Summary (MCS) scores. (Ware J E, Kosinski M, Keller S D. SF-36 Physical and Mental Health Summary Scales: A User's Manual. Boston, Mass.: The Health Institute, 1994). The PCS and MCS are generated to represent weighted summaries scores of the four physical functioning scales and four mental functioning scales of the SF-36. The summary scores are generally regarded as having improved reliability and precision as they are based on an incrementally larger number of health states contained in the SF-36 items. (Ware J E, Kosinski M, Keller S D. SF-36 Physical and Mental Health Summary Scales: A User's Manual. Boston, Mass.: The Health Institute, 1994.) Changes from baseline scores were compared between groups using non-directional independent groups t-tests. An alpha level of 0.05 was considered to be statistically significant. As an indicator of the responsiveness of the SF-36 scales to changes in health-related quality of life in severe heart failure patients, effect size estimates were also calculated. Effect size estimates were calculated as [mean (spironolactone)−mean (placebo)]/(SD placebo at baseline). (Hays R D, Anderson R, Revicki D. Psychometric considerations in evaluating health-related quality of life. Quality of Life Research 1993;2:441-449; Samsa G, Edelman D, Rothman M L, et al. Determining clinically important differences in health status measures. A general approach with illustrations to the Health Utilities Index Mark II. PharmacoEconomics1999;15:141-155). All analyses were carried out using SAS System for Windows, Release 6.12. (SAS version 6.12, SAS Institute Inc., North Carolina, 1996).
Patient Characteristics: Baseline HRQOL was assessed in a subsample of 90 subjects in 2 participating countries (i.e., Brazil and Canada). Forty-six subjects were randomized to spironolactone; 44 were randomized to the placebo arm. Sixty subjects had complete data for the 6 months of follow-up.

rats = conditions: prior treatment; scopolamine cholinergic blockade; cited from earlier work
[3] = ambulatory blood pressure monitoring
[4] = 100 mg daily from day 14 of menstrual cycle, compared to placebo, p<0.001
[5] = 3 months, listed as spironolactone
[6] = 6 months, listed as spironolactone
[7] = added to conventional heart failure therapy, severe HF

## CC(=O)SC1CC2=CC(=O)CCC2(C)C2CCC3(C)C(CCC34CCC(=O)O4)C12 (stereo not shown) [Spironolactone, 17-hydroxy-7″-mercapto-3-oxo-17″-pregn-4-ene-21-carboxylic acid γ-lactone acetate]
[1]; [3]
  adjusted mean change in ABPM DBP from baseline to final visit: −8.7 mmHg
  adjusted mean change in ABPM SBP from baseline to final visit: −15.8 mmHg
[1]; eight-week study
  adjusted mean change in Cuff DBP from baseline to final visit: −9.5 mmHg
  adjusted mean change in Cuff SBP from baseline to final visit: −16.7 mmHg
Animal models
  myocardial fibrosis: prevents
Women with PMS; [4]
  negative mood symptom scores: significant decrease
  somatic symptom scores: significant decrease
Women with PMS; in comparison to placebo
  irritability, depression, feeling of swelling, breast tenderness and food craving: significantly improved
[2]; 3 months
  Change from baseline in SF-36 Bodily Pain: 19.6 ± 30.0^a
  Change from baseline in SF-36 General Health: 9.7 ± 20.4^a
  Change from baseline in SF-36 Mental Composite Summary (MCS): 13.2 ± 11.8^a,b
  Change from baseline in SF-36 Mental Health: 19.9 ± 21.2^a,b
  Change from baseline in SF-36 Physical Composite Summary (PCS): 3.0 ± 8.1^a
  Change from baseline in SF-36 Physical Functioning: 7.9 ± 19.4^a
  Change from baseline in SF-36 Role Limitations - Emotional: 37.8 ± 46.1^a
  Change from baseline in SF-36 Role Limitations - Physical: 23.3 ± 40.1^a
  Change from baseline in SF-36 Social Functioning: 24.6 ± 33.6^a
  Change from baseline in SF-36 Vitality: 16.7 ± 24.1^a
  Effect size estimate for change in SF-36 Bodily Pain: 0.40
  Effect size estimate for change in SF-36 General Health: 0.03
  Effect size estimate for change in SF-36 Mental Composite Summary (MCS): 0.86
  Effect size estimate for change in SF-36 Mental Health: 0.76
  Effect size estimate for change in SF-36 Physical Composite Summary (PCS): −0.21
  Effect size estimate for change in SF-36 Physical Functioning: −0.23
  Effect size estimate for change in SF-36 Role Limitations - Emotional: 0.48
  Effect size estimate for change in SF-36 Role Limitations - Physical: 0.33
  Effect size estimate for change in SF-36 Social Functioning: 0.26
  Effect size estimate for change in SF-36 Vitality: −0.07
[2]; [5]
  Change from baseline in SF-36 Mental Composite Summary (MCS): 13.2±11.8
  Change from baseline in SF-36 Mental Health: 19.9±21.2
[2]; 6 months
  Change from baseline in SF-36 Bodily Pain: 15.9 ± 30.5^a
  Change from baseline in SF-36 General Health: 12.0 ± 22.3^a
  Change from baseline in SF-36 Mental Composite Summary (MCS): 10.3 ± 12.8^a
  Change from baseline in SF-36 Mental Health: 17.5 ± 22.9^a,b
  Change from baseline in SF-36 Physical Composite Summary (PCS): 3.9 ± 9.1^a
  Change from baseline in SF-36 Physical Functioning: 11.4 ± 21.5^a
  Change from baseline in SF-36 Role Limitations - Emotional: 24.0 ± 39.9^a
  Change from baseline in SF-36 Role Limitations - Physical: 14.8 ± 32.3^a
  Change from baseline in SF-36 Social Functioning: 23.1 ± 32.1^a
  Change from baseline in SF-36 Vitality: 19.0 ± 25.5^a
  Effect size estimate for change in SF-36 Bodily Pain: 0.28
  Effect size estimate for change in SF-36 General Health: 0.08
  Effect size estimate for change in SF-36 Mental Composite Summary (MCS): 0.64
  Effect size estimate for change in SF-36 Mental Health: 0.59
  Effect size estimate for change in SF-36 Physical Composite Summary (PCS): −0.07
  Effect size estimate for change in SF-36 Physical Functioning: −0.11
  Effect size estimate for change in SF-36 Role Limitations - Emotional: −0.42
  Effect size estimate for change in SF-36 Role Limitations - Physical: −0.18
  Effect size estimate for change in SF-36 Social Functioning: 0.20
  Effect size estimate for change in SF-36 Vitality: 0.13
[2]; [6]
  Change from baseline in SF-36 Mental Composite Summary (MCS): 10.3±12.8
  Change from baseline in SF-36 Mental Health: 17.5±22.9
[2]; [7]
  effect on physical health or functioning: no detrimental effect
  impact on mental health status: strong, positive impact
rats
  enhanced reactivity to novelty: ameliorated
